Data as given in patent publication EP0540859B1, “Anthracycline prodrugs” (Bristol-Myers Squibb Company, priority 1987, dated 1989).
Read-outs that look alike come from different tables or passages of the source.

Legend:
penicillin V amidase = assay: Hydrolysis of APO to adriamycin by PVA or L6-PVA conjugate (HPLC); format: biochemical, Fusarium oxysporum
Method: The ability of the antibody-PVA conjugate, L6-PVA, to convert the novel prodrug, APO, to adriamycin was measured as follows: either a) PVA alone (final concentration:50 µg/ml), b) 100 µg/ml of the L6-PVA conjugate (final PVA concentration: 25 µg/ml) or c) 10 µg/ml of L6-PVA (final PVA concentration: 2.5 µg/ml) were added to a solution of APO (0.1 mM) in PBS. Each reaction was monitored by HPLC using a Phenominex C-18 column (3 µm, 4.5 x 100 mm) and a gradient elution of 20-60% tetrahydrofuran in water with 0.1% H3PO4 (1.0 ml/min, monitored at 495 nm). Under these conditions, the adriamycin eluted at 8.9 minutes and the APO eluted at 12.2 minutes.

H2981 tumor cells [1] = assay: 3H-thymidine uptake assay on H2981 cells, PVA conjugates with APO; format: cell-based; conditions: Homo sapiens; H2981 cells untreated with any conjugate
Method: The in vitro cytotoxic effect of the antibody-PVA/ adriamycin prodrug combination of the invention toward H2981 tumor cells was measured using the ^3H-thymidine uptake assay described in Examples 1 and 2 above. Briefly, the H2981 tumor cells were plated into 96-well microtiter plates in IMDM (10,000 cells/well) and were allowed to attached for 18 h at 37°C. The antibody-PVA conjugates, L6-PVA or 1F5-PVA, were then added at a concentration of 10 µg/ml of antibody and the plates were incubated for 30 min at 4°C. The wells were then washed four times with IMDM and APO was added at varying concentrations in IMDM. After two h, the wells were again washed, IMDM was added and the cells were left for 18 h at 37°C. At that point, ^3H-thymidine was added (1 µCi per well) and after 6 h, the plates were frozen at -70°C to detach the cells. After thawing, the cells were harvested onto glass fiber filters. The incorporation of ^3H-thymidine was measured in a Beckman 3801 scintillation counter and compared to cells treated with APO or adriamycin (ADM) alone.

H3347 tumor cells [2] = assay: 3H-thymidine uptake assay on H3347 cells; format: cell-based, human
[3] = Stability of aqueous solutions of etoposide prodrugs; format: physicochemical
Method: For example, either AP alone or the antibody-enzyme conjugate, L6-AP, produced as described above (final AP concentration 5 µg/ml) were added to a solution of etoposide-4'-phosphate (0.1 mM) in Tris buffer (100 mM) containing MgCl2 (1 mM) and ZnCl2 (0.1 mM) at pH 7.0. The reaction was monitored by HPLC using an IBM C-18 column (3 µ, 4.5 x 100 mm) and 50% aqueous methanol as eluant (0.5 ml/min, monitored at 254 nm). […] Aqueous solutions of etoposide phosphate or etoposide thiophosphate were stable for at least 8 hours at room temperature and for several days at 4°C.

H3347 tumor cells [4] = assay: Clonogenic cytotoxicity (colony inhibition) assay; format: cell-based; conditions: Homo sapiens, 15 hours drug exposure, colonies counted 7-10 days later
Method: The clonogenic cytotoxicity assay we used was the colony inhibition assay described by I. Hellstrom et al., "Colony Inhibition And Cytotoxicity Assays," in In Vitro Methods In Cell-Mediated Immunity, Bloom and Glade (ed.s), pp.- 409-14 (1971). The cells used to detect cytotoxicity were the H3347 tumor cells described above. Both the L6-AP and 96.5-AP conjugates were tested for their ability to convert prodrug into the free drug.
Briefly, the H3347 cells (10^6/ml) were suspended in IMDM growth media (containing 10 µg/ml of each immunoconjugate based on antibody concentration) and incubated for 30 min at 37°C. The cells were washed twice, resuspended in IMDM, and the drug or prodrug in medium was added. Incubation at 37°C was continued for 15 hours. After washing twice, the cells were plated out and the number of colonies (>8 cells/colony) were counted 7-10 days later.

H3347 tumors = assay: In vivo antitumor effect, conjugate/etoposide phosphate, s.c. H3347 tumors; set-up: species or system nude mice; conditions: for antitumor effect on tumor growth: Figure 11, conjugates i.p. 18-24 h prior to EP; for tolerability in the animals: nude mice, maximum tolerated doses; for RESPONSE complete / RESPONSE partial / RESPONSE progression / RESPONSE stable: number of 16 tumors in each group, 23 days after tumor implant
Method: First, Balb/C nu/nu female mice (4-6 wk old) (obtained from Life Sciences, St. Petersburg, Florida) were injected with 10^7 H3347 tumor cells subcutaneously (s.c.) in the left and right hind flanks. The tumor cells were obtained from in vitro cultures that had been suspended by treatment for 2 min with trypsin (0.5 g/l) and EDTA (0.2 g/l). The cells were washed twice with IMDM and incubated for 1 h at 37°C in IMDM with 10% fetal calf serum. The cells were washed, suspended in PBS, and kept at 4°C prior to injection. Both the localization and therapy studies described herein were initiated when the tumors reached an average size of 225 mm^3.
Therapy experiments were performed on nude mice that had s.c. tumors approximately 225 mm^3 in volume. The conjugates, L6-AP and 1F5-AP, were administered (i.p.) 18-24 h prior to treatment with EP. Tumor growth was compared to that in untreated mice and in mice treated with maximum tolerated doses of etoposide or EP alone.
More particularly, a group of 8 nude mice with bilateral H3347 tumors was treated with either etoposide (0.2 ml containing 1.2 mg etoposide in 2:3 DMSO:H2O) or EP (0.2 ml containing 2 mg EP in H2O) alone or with L6-AP (0.1 ml containing 300 µg antibody in PBS) or 1F5-AP (0.1 ml containing 300 µg antibody in PBS) followed by EP treatment Each experiment contained a control group of mice that was untreated. Tumor volumes were estimated at various days post tumor implant, using the formula: ([(perpendicular width)^2 /2)] X longest length [formula]

Alkaline phosphatase = assay: Hydrolysis of etoposide phosphate prodrugs by AP or L6-AP conjugate (HPLC); conditions: for hydrolysis by alkaline phosphatase, relative rate: Figure 5
H2981 tumor cells [5] = tested on: H2981 tumor cells
H2981 tumor cells [6] = assay: cells; conditions: Homo sapiens
H2981 tumor = assay: In vivo antitumor effect, conjugate/mitomycin prodrug and MOP/EP combinations, s.c. H2981 tumor; set-up: species or system nude Balb C nu/nu female mice; conditions: for antitumor activity in vivo: Figures 18 and 19, conjugates 18-24 h prior to prodrug; for time required to reach an average tumor volume of 750 mm^3: H2981 tumor, maximum tolerated doses
Method: Therapy studies were then performed on nude Balb C nu/nu female mice (6 mice per treatment group) (4-6 wk old) obtained from Life Sciences (St. Petersburg, Fla.) that had been implanted (s.c., right hind flank) with a H2981 tumor obtained from in vivo sourcing. The experiments were run when the tumors reached approximately 100 mm^3 in volume. The L6-AP and 1F5-AP conjugates (0.1 ml containing 250 µg antibody in PBS) were each administered (i.p.) 18-24 h prior to treatment with MOP (0.2 ml containing 0.6 mg MOP in H2O). Tumor growth was compared to that observed in untreated mice and in mice treated with maximum tolerated doses of MOP (0.2 ml containing 0.6 mg MOP in H2O) or MOH (0.2 ml containing 0.2 mg MOH in H2O) alone.
The prodrugs, EP and MOP, were prepared as described in Examples 1 and 2, respectively. Preparation of the L6-AP and 1F5-AP immunoconjugates is described in Example 1. The in vivo studies on nude mice were carried out as described in Examples 1 and 2 above. Thus, nude mice that had been implanted with a H2981 tumor were pre-exposed to the L6-AP or 1F5-AP conjugate 18-24 h prior to treatment with a combination of MOP/EP (0.2 ml containing 1 mg EP and 0.3 mg MOP in H2O). Tumor growth was compared to that observed in untreated mice and in mice treated with the MOP/EP combination alone.

[7] = Relative toxicities of MOH and MOP in mice; set-up: species or system Balb C nu/nu mice; conditions: mouse, in vivo, ip; for LD50: two equal doses spaced 4 days apart; for MTD: given in 4 equal doses over a 25 day period, read-out: total amounts well tolerated
Method: Prior to investigating the in vivo antitumor activity of MOP in combination with the L6-AP conjugate the relative toxicities of the prodrug and its released active derivative, MOH, were determined in Balb C nu/nu mice. […] Total amounts of up to 40 mg/kg of MOH and 100 mg/kg of MOP were well tolerated if given in 4 equal doses over a 25 day period.

[8] = tested on: calf intestinal or human placental AP; assay: Reactivity of MOP with AP (HPLC); format: biochemical; conditions: MOP 1 mM, AP 1 µg/ml, 100 mM Tris pH 7.2, room temperature
Method: The MOP prodrug was then tested for its reactivity with AP. […] The course of the reaction was monitored by HPLC using a C-18 column (4.6 x 150 mm) and the following conditions: detection at 280 nm; 30-95% methanol in acetate buffer (100 mM, pH 5.2) over 8 min, re-equilibration after 15 min; 0.8 ml/min flow rate. Under these conditions, MMC eluted at 7.0 min, MOH eluted at 8.5 min, and MOP eluted 4.0 min. […] HPLC served to confirm that the corresponding alcohol, MOH, was formed. Under the reaction conditions used, the half life for hydrolysis of MOP was about 10 min and the reaction went to completion within 40 min.

[9] = by day 63, mitomycin derivatives (Table 3)

COc1cccc2c1C(=O)c1c(O)c3c(c(O)c1C2=O)C[C@@](O)(C(=O)CO)C[C@@H]3O[C@H]1C[C@H](NC(=O)COc2ccc(O)cc2)[C@H](O)[C@H](C)O1 [APO, N-(p-hydroxyphenoxyacetyl)adriamycin]
time to effect this level of hydrolysis (at least 80%) (penicillin V amidase; L6-PVA conjugate at 10 µg/ml (2.5 µg/ml of PVA)): 120 min
hydrolysis of APO to adriamycin (penicillin V amidase; within 40 minutes, PVA alone 50 µg/ml or L6-PVA conjugate 100 µg/ml): at least 80%
IC50 (H2981 tumor cells [1]): 2000 nM

COc1cc(C2c3cc4c(cc3C(OC3OC5COC(C)OC5C(O)C3O)C3COC(=O)C23)OCO4)cc(OC)c1OP(=O)(O)O (stereo not drawn) [EP, 4'-disodium phosphate ester of etoposide]
inhibition at 100 µM (H3347 tumor cells [2]; Homo sapiens, at 100 µM): 35%
stability of aqueous solutions ([3]; 4°C): several days
stability of aqueous solutions ([3]; room temperature): at least 8 hours
IC50 (H3347 tumor cells [4]): 5800 nM
antitumor effect on tumor growth (H3347 tumors): greater antitumor effect than seen with etoposide itself
tolerability in the animals (H3347 tumors): less toxic to the animals
RESPONSE complete (H3347 tumors): 0
RESPONSE partial (H3347 tumors): 0
RESPONSE progression (H3347 tumors): 6
RESPONSE stable (H3347 tumors): 10
hydrolysis by alkaline phosphatase, relative rate (Alkaline phosphatase): hydrolyzed by the enzyme more rapidly than the etoposide thiophosphate prodrug
phosphate hydrolysis in the absence of enzyme (Alkaline phosphatase; Tris buffer pH 7.0, no enzyme): no phosphate hydrolysis occurred
hydrolysis of the etoposide-4'-phosphate to etoposide (Alkaline phosphatase; within 5 min of the start, AP free or as L6-AP conjugate, final AP concentration 5 µg/ml, prodrug 0.1 mM, pH 7.0): at least 85 X
kill (H2981 tumor cells [5]; human, h2981 cells, 30 µM): 20%

CO[C@@]12[C@H](COC(N)=O)C3=C(C(=O)C(C)=C(N)C3=O)N1C[C@@H]1N[C@@H]12 [MMC, mitomycin C, reference compound]
IC50 (H2981 tumor cells [5]): ~1000 nM

CO[C@@]12[C@H](COC(N)=O)C3=C(C(=O)C(C)=C(NCCO)C3=O)N1C[C@@H]1N[C@@H]12 [MOH, 7-[(2-hydroxyethyl)amino]-9a-methoxymitosane, reference compound]
IC50 (H2981 tumor cells [6]): ~1000 nM
antitumor activity in vivo (H2981 tumor): significant antitumor activities in vivo
time required to reach an average tumor volume of 750 mm^3 (H2981 tumor): 45 days
TUMOR RESPONSES PROGRESSION (H2981 tumor; [9]): 6/6
LD50 [7]: 45 mg/kg
MTD [7]: ≥ 40 mg/kg

CO[C@@]12[C@H](COC(N)=O)C3=C(C(=O)C(C)=C(NCCOP(=O)(O)O)C3=O)N1C[C@@H]1N[C@@H]12 [MOP, 7-(2'-aminoethyl phosphate)mitomycin]
antitumor activity in vivo (H2981 tumor): significant antitumor activities in vivo
time required to reach an average tumor volume of 750 mm^3 (H2981 tumor): 63 days
TUMOR RESPONSES PROGRESSION (H2981 tumor; [9]): 4/5
TUMOR RESPONSES STABLE (H2981 tumor; [9]): 1/5
time for the reaction to go to completion [8]: ≤ 40 min
LD50 [7]: 90 mg/kg
MTD [7]: ≤ 100 mg/kg
cell kill (H2981 tumor cells [5]; at 10 µM, H2981 cells): 5%

COc1cc(C2c3cc4c(cc3C(OC3OC5COC(C)OC5C(O)C3O)C3COC(=O)C23)OCO4)cc(OC)c1OP(O)(O)=S (stereo not drawn) [etoposide thiophosphate, 4'-disodium thiophosphate ester of etoposide]
stability of aqueous solutions ([3]; 4°C): several days
stability of aqueous solutions ([3]; room temperature): at least 8 hours
hydrolysis by alkaline phosphatase, relative rate (Alkaline phosphatase): increased stability towards hydrolysis

COc1cc([C@@H]2c3cc4c(cc3[C@@H](O[C@@H]3O[C@@H]5CO[C@@H](C)O[C@H]5[C@H](O)[C@H]3O)[C@H]3COC(=O)[C@H]23)OCO4)cc(OC)c1O [etoposide, reference compound]
IC50 (H2981 tumor cells [6]): 2000 nM
toxicity relative to EP (H3347 tumor cells [2]): more than 100 fold
IC50 (H3347 tumor cells [2]; Homo sapiens, 6 h drug exposure): 1000 nM
IC50 (H3347 tumor cells [4]): 200 nM
antitumor effect on tumor growth (H3347 tumors): very little effect on tumor growth
tolerability in the animals (H3347 tumors): higher doses were not well tolerated
RESPONSE complete (H3347 tumors): 0
RESPONSE partial (H3347 tumors): 0
RESPONSE progression (H3347 tumors): 12
RESPONSE stable (H3347 tumors): 4
